Source: ChEMBL document CHEMBL6074624, “FDA-approved small molecule kinase inhibitors for cancer treatment (2001-2015): Medical indication, structural optimization, and binding mode Part I” (Bioorg Med Chem, 2024)
≈ marks a conversion by molar mass, not a printed value.

Assays:
[1] = target: Dual specificity mitogen-activated protein kinase kinase 1 (Homo sapiens, UniProt Q02750); test: Inhibition of MEK1 (unknown origin) phosphorylation by [gamma-33P]-ATP assay
[2] = Antiproliferative activity against human MDA-MB-231T cells assessed as reduction in cell viability; assay type: functional, cell-based
[3] = Antitumor activity against human MDA-MB-231T cells xenografted in mouse assessed as tumor growth inhibition at 1 mg/kg, po relative to control; assay type: functional; details: read-out: TGI
[4] = Antitumor activity against human MDA-MB-231T cells xenografted in mouse assessed as tumor growth inhibition at 3 mg/kg, po relative to control; assay type: functional; details: read-out: TGI
[5] = Oral bioavailability in human at 5 mg/kg; assay type: ADME, organism-based; details: in vivo
[6] = test system: KARPAS-299; test: Antitumor activity against ALK positive human KARPAS-299 cells xenografted in RNU nude rat assessed as tumor growth inhibition at 6.25 mg/kg, po administered for 2 weeks relative to control; assay type: functional; details: KARPAS-299, 336 h, read-out: TGI
[7] = test system: KARPAS-299; test: Antitumor activity against ALK positive human KARPAS-299 cells xenografted in RNU nude rat assessed as tumor growth inhibition at 12.5 mg/kg, po administered for 2 weeks relative to control; assay type: functional; details: KARPAS-299, 336 h, read-out: TGI
[8] = test system: KARPAS-299; test: Antitumor activity against ALK positive human KARPAS-299 cells xenografted in RNU nude rat assessed as tumor growth inhibition at 25 mg/kg, po administered for 2 weeks relative to control; assay type: functional; details: KARPAS-299, 336 h, read-out: TGI
[9] = test system: NCI-H2228; test: Antitumor activity against ALK positive human NCI-H2228 cells xenografted in RNU nude rat assessed as tumor growth inhibition at 5 mg/kg, po administered for 2 weeks relative to control; assay type: functional; details: NCI-H2228, 336 h, read-out: TGI
[10] = test system: NCI-H2228; test: Antitumor activity against ALK positive human NCI-H2228 cells xenografted in RNU nude rat assessed as tumor growth inhibition at 10 mg/kg, po administered for 2 weeks relative to control; assay type: functional; details: NCI-H2228, 336 h, read-out: TGI
[11] = Clearance in Sprague-Dawley rat at 5 mg/kg, po; assay type: ADME, organism-based; details: in vivo
[12] = Toxicity in ICR mouse assessed as maximal tolerated dose measured for 7 days; details: in vivo, time 7 day
[13] = test system: ACHN; test: Antiproliferative activity against human ACHN cells assessed as reduction in cell viability measured after 48 hrs by SRB assay; assay type: functional, cell-based
[14] = test system: HT-29; test: Antiproliferative activity against human HT-29 cells assessed as reduction in cell viability after 72 hrs by MTS assay; assay type: functional, cell-based; details: HT-29, 72 h
[15] = Solubility of compound in PBS at pH 7.4; assay type: physicochemical
[16] = Permeability of compound in human Caco-2 cells […]; assay type: ADME, cell-based; details: read-out: permeability
[17] = AUC in human; assay type: ADME
[18] = Oral bioavailability in human; assay type: ADME, organism-based; details: in vivo
[19] = test system: A549; test: Antitumor activity against human A549 cells harboring KRAS G12S mutant xenografted in athymic nude mouse assessed as tumor growth inhibition at 5 mg/kg, po administered once daily for 21 days relative to control; assay type: functional; details: A549, 504 h, time 21 day, read-out: TGI
[20] = test system: A549; test: Antitumor activity against human A549 cells harboring KRAS G12S mutant xenografted in athymic nude mouse assessed as tumor growth inhibition at […], po administered once daily for 21 days relative to control; assay type: functional; details: A549, 504 h, dose 2.5 mg/kg, time 21 day, read-out: TGI
[21] = test system: A549; test: Antitumor activity against human A549 cells harboring KRAS G12S mutant xenografted in athymic nude mouse assessed as tumor growth inhibition at 0.5 mg/kg, po administered once daily for 21 days relative to control; assay type: functional; details: A549, 504 h, time 21 day, read-out: TGI
[22] = test system: A549; test: Antitumor activity against human A549 cells harboring KRAS G12S mutant xenografted in athymic nude mouse assessed as tumor growth inhibition at 0.1 mg/kg, po administered once daily for 21 days relative to control; assay type: functional; details: A549, 504 h, time 21 day, read-out: TGI
[23] = test system: Caco-2; test: Cytotoxicity against human Caco-2 cells assessed as reduction in cell viability; assay type: functional, cell-based
[24] = test system: MDA-MB-231; test: Antitumor activity against human MDA-MB-231 cells xenografted in athymic nude mouse assessed as tumor growth inhibition at 20 mg/kg, po administered once daily for 11 days relative to control; assay type: functional; details: MDA-MB-231, 264 h, time 11 day, read-out: TGI
[25] = test system: KARPAS-299; test: cells; details: Homo sapiens, KARPAS-299, 24 h
[26] = test system: Ramos; test: cells; details: Homo sapiens
[27] = test system: Jurkat; test: cells; details: Homo sapiens
[28] = Intrinsic clearance in rat; assay type: ADME
[29] = test system: SK-MEL-28; test: Cytotoxicity against human SK-MEL-28 cells assessed as reduction in cell viability after 24 hrs by MTT assay; assay type: functional, cell-based; details: SK-MEL-28, 24 h

Dual specificity mitogen-activated protein kinase kinase 1, sequence (Q02750 whole entry): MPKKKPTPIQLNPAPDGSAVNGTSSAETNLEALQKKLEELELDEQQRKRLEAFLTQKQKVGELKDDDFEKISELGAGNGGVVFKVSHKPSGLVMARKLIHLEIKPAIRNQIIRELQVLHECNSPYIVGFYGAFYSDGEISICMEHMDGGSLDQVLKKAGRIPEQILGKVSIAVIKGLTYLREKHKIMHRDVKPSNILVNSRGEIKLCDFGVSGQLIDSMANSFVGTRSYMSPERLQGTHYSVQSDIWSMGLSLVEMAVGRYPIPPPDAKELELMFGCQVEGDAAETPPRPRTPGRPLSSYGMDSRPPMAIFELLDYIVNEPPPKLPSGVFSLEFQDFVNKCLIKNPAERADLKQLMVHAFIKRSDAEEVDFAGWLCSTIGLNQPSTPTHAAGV

For `O=C(c1ccc(F)c(F)c1Nc1ccc(I)cc1F)N1CC(O)([C@@H]2CCCCN2)C1` [COBIMETINIB], which IC50 [1] is on record?
The IC50 was 6.6 nM.

And the IC50 [2]?
Its IC50 is 0.2 nM.

What about the inhibition in vivo at 1 mg/kg [3] of the same compound?
Its inhibition in vivo at 1 mg/kg is 60%.

What about the inhibition in vivo at 3 mg/kg [4] of the same compound?
Its inhibition in vivo at 3 mg/kg is 93%.

What about the bioavailability [5] of the same compound?
The bioavailability was 77%.

For `Cc1cc(Nc2ncc(Cl)c(Nc3ccccc3S(=O)(=O)C(C)C)n2)c(OC(C)C)cc1C1CCNCC1` [CERITINIB], which inhibition in vivo at 6.25 mg/kg [6] is on record?
The inhibition in vivo at 6.25 mg/kg was 74%.

And the inhibition in vivo at 12.5 mg/kg [7]?
The inhibition in vivo at 12.5 mg/kg was 30%.

What about the inhibition in vivo at 25 mg/kg [8] of the same compound?
The inhibition in vivo at 25 mg/kg was 33%.

And the inhibition in vivo at 5 mg/kg [9]?
Its inhibition in vivo at 5 mg/kg is 67%.

And the inhibition in vivo at 10 mg/kg [10]?
The inhibition in vivo at 10 mg/kg was 2%.

With `O=C(c1ccc(F)c(F)c1Nc1ccc(I)cc1F)N1CC(O)C1` as the compound, how does the CL [11] read?
Its CL is 8.324 mL/min/kg.

With `O=C(NOC[C@H](O)CO)c1ccc(F)c(F)c1Nc1ccc(I)cc1F` [MIRDAMETINIB] as the compound, how does the MTD at 168 h [12] read?
Its MTD at 168 h is 25 mg/kg.

Which IC50 [13] does the source give for `CC(=O)Nc1cccc(-n2c(=O)n(C3CC3)c(=O)c3c(Nc4ccc(I)cc4F)n(C)c(=O)c(C)c32)c1` [TRAMETINIB] here?
Its IC50 is 9.8 nM.

And the IC50 [14]?
The IC50 was 0.57 nM.

What about the solubility [15] of the same compound?
The solubility was 5.3 µM (≈ 3.26 µg/mL).

And the Papp [16]?
Its Papp is 26 ×10⁻⁶ cm/s.

What about the AUC [17] of the same compound?
The AUC was 88.3 µM·h.

And the bioavailability [18]?
Its bioavailability is 30%.

What about the inhibition in vivo at 5 mg/kg [19] of the same compound?
Its inhibition in vivo at 5 mg/kg is 92%.

And the inhibition in vivo at […] [20]?
Its inhibition in vivo at […] is 87%.

And the inhibition in vivo at 0.5 mg/kg [21]?
The inhibition in vivo at 0.5 mg/kg was 62%.

What about the inhibition in vivo at 0.1 mg/kg [22] of the same compound?
Its inhibition in vivo at 0.1 mg/kg is 58%.

Which IC50 [23] does the source give for `O=C(NOCC1CC1)c1ccc(F)c(F)c1Nc1ccc(I)cc1Cl` [CI-1040] here?
The IC50 was 35 nM.

For `CCc1cc2c(cc1N1CCC(N3CCOCC3)CC1)C(C)(C)c1[nH]c3cc(C#N)ccc3c1C2=O` [ALECTINIB], which inhibition in vivo at 20 mg/kg [24] is on record?
Its inhibition in vivo at 20 mg/kg is 119%.

What about the IC50 [25] of the same compound?
Its IC50 is 12.8 nM.

For `C=CC(=O)N1CCC[C@@H](n2nc(-c3ccc(Oc4ccccc4)cc3)c3c(N)ncnc32)C1` [IBRUTINIB], which IC50 [26] is on record?
The IC50 was 40 nM.

What about the IC50 [27] of the same compound?
The IC50 was 470 nM.

For `CC(C)(C)c1nc(-c2cccc(NS(=O)(=O)c3c(F)cccc3F)c2F)c(-c2ccnc(N)n2)s1` [DABRAFENIB], which clearance [28] is on record?
The clearance was 19 mL/min/kg.

What about the IC50 [29] of the same compound?
Its IC50 is 3 nM.
